Consider three molecules from patent EP0774455A1, “Excitatory amino acid receptor antagonists” (ELI LILLY AND COMPANY, priority 1995, dated 1997).

The structures appear in SMILES notation.

For test [1], the system named is mouse. The experiment in a line: mouse elevated plus maze model. The class given is in vivo.
Test [2] has as its system mouse. In words: mouse conditioned active avoidance response model. The class given is in vivo. The source says:
(Pfeiffer & Jenney, Ann. N.Y. Acad. Sci., 66:[…], 1957; Maffii, J. Pharm. Pharmacol., 11: 129-139, 1959; Cook & Weidley, Ann; N.Y. Acad. Sci., 66: […], 1957; Janke, Handbook of Experimental Pharmacology, Vol. 55/I, New York: Plenum Press, 1978).

The subject of test [3] is metabotropic glutamate receptors. In words: selective displacement of 1S,3R-ACPD-sensitive [3H]glutamate binding to rat brain cell membranes (crude membranes of rat forebrain). On the procedure: The binding of [^3H]glutamate was conducted with crude membranes of rat forebrain as described by Schoepp and True. Schoepp and True, Neuroscience Lett., 145, 100-104 (1992) and Wright et al., J. Neurochemisty 63: 938-945 (1994).

`Cc1cccc(C[C@@H]2C[C@H]3[C@H](C(=O)O)[C@H]3[C@]2(N)C(=O)O)c1` (racemic) [Example 4, 1SR,2SR,3SR,5RS,6SR-Amino-3-((3-methyl)benzyl)bicyclo[3.1.0]hexane-2,6-dicarboxylic acid]: in the test on mouse [1], the anxiolytic effect result was “anxiolytic effect”.
As for `N[C@@]1(C(=O)O)[C@H](Cc2ccc(F)c(F)c2F)C[C@H]2[C@H](C(=O)O)[C@H]21` (racemic) [Example 25, 1SR,2SR,3SR,5RS,6SR-2-Amino-3-((2,3,4-trifluoro)-benzyl)bicyclo[3.1.0]hexane-2,6-dicarboxylic acid], the neuroleptic properties result in the test on mouse [2] is reported as “neuroleptic properties”.
Consider `NC1(C(=O)O)C(CCCc2ccccc2)CC2C(C(=O)O)C21` (stereo not drawn) [Example 1, Mixture of 1SR,2SR,3RS,5RS,6SR-2-amino-3-(3-phenylpropyl)bicyclo[3.1.0]-hexane-2,6-dicarboxylic acid and 1SR, 2RS, 3RS, 5RS, 6SR-2-amino-3-(3-phenylpropyl)bicyclo[3.1.0]hexane-2,6-dicarboxylic acid], for which the IC50 (usually the point on the concentration scale where inhibition reaches its midpoint) in test [3] was found to be 320 nM.
